Measurements: patent publication US10849922B2, “Treatments for retinal disorders” (Cornell University, priority 2011, dated 2020)

Experiments:
[1] = A2E fluorescence assay for molecules able to encapsulate A2E (AUC ratio); format: binding; settings: fluorescence spectra changes as a function of added β-CD concentration
Experimental: In the assay method, at least two solutions containing a lipofuscin bisretinoid lipid are first provided, and the at least two solutions should be substantially the same in all respects, such as in the type of lipofuscin bisretinoid lipid, the concentration of lipofuscin bisretinoid lipid, and the solvent composition. A candidate compound is then added to at least one of the solutions. Fluorescence spectra of the two solutions (i.e., a first solution not containing the candidate compound and a second solution containing the candidate compound) is then measured at an excitation wavelength (e.g., 434 nm or other suitable excitation wavelength) that causes fluorescence of the lipofuscin bisretinoid lipid in the range of 530 nm and 700 nm, or any suitable sub-range therein. An area under the curve (AUC) is then determined for corresponding spectral curves of the first and second solutions within the range of 530 nm and 700 nm or a sub-range therein. […] A ratio of the AUC of the second solution (containing the candidate compound) over the AUC of the first solution (not containing the candidate compound) is then calculated. […]
The fluorescence spectra were immediately determined (although it was stable for several days) between 530 and 700 nm using a 434 nm excitation wavelength. […] The area under the resulting spectral fluorescence curve was determined with statistical software (Prism4, GraphPad). […]

[2] = Fluorescence comparison of cyclodextrin binding to DHE; settings: fluorescence spectra changes as a function of added β-CD concentration
Text: The binding of A2E and DHE (fluorescent cholesterol analog to cyclodextrins) has been herein investigated by using the assay method described above. […] The determination of affinity constants and stoichiometry for new inclusion complexes can be complex, particularly when the molecular ratio host:guest is bigger than 1. For cholesterol, however, the affinity constants, stoichiometry, molecular structure, and applications of many of its inclusion complexes with cyclic oligosaccharides have been well established. In this context, the side-by-side comparation of A2E and cholesterol complex formation with the same cyclic oligosaccharide serves as an immediate reference to evaluate the quality of the inclusion complex with A2E, as well as help in the determination of its affinity constant, stoichiometry, and structure.

A2E oxidation assay = settings: A2E 5 μM in water, 48 hours, RT in the dark, cyclodextrin 10-100 mM
Experimental: Solutions containing increasing amounts of Poly Beta-CD (0 mM to 100 mM) were prepared in water, and A2E was added to a final concentration of 5 μM. The solutions were incubated at RT in the dark. 48 hrs later, the UV-visible absorption spectra between 300 and 700 nm was analyzed to determine the oxidative status of A2E. […] These bands can be assigned to the shorter (S) and longer (L) arms of A2E, respectively. Oxidation of a carbon-carbon double bond is accompanied by a hypsochromic shift. A hypsochromic shift in band S corresponds with oxidation on the short arm; a blue-shift in band L reflects oxidation on the long arm; hypsochromic shifts in both peaks indicates oxidation on both side arms (Jang Y. P. et al., J. Biol. Chem., 2005, 280(48):39732-9). The results shown in FIG. 12A indicate that under this aqueous environment A2E oxidizes.

A2E aggregation assay = settings: A2E 25 μM aqueous solution
Text: A2E aggregates are believed to have a role in RPE cell death. This study investigated whether cyclic oligosaccharides dissolve A2E aggregates that form in aqueous phase. The following can be deduced from FIG. 13:
[…] After three days, the liquid in each chamber was harvested and analyzed with a spectrofluorometer to detect the presence of A2E. Only inserts with 3 μm pores allowed A2E to diffuse through.
The presence of A2E on each side was established by fluorescence scanning between 530-700 nm using 434 nm as the excitation wavelength.

eyecups from DKO mice = test: In vitro assay on eyecups of DKO mice; settings: 2 mM cyclodextrin, 36 hours of culture
Experimental: FIGS. 17A, 17B. […] The resulting eyecups were in vitro treated with cyclodextrins for 36 hrs before observing them under the microscope (FIG. 17B).
Eyecups comprise the dark pigmented RPE, choriocapillaries, as well as the grayish sclera. Eyecups were incubated in complete media containing, or not, 2 mM cyclodextrins. After 36 hours of culture, eyecups were flat mounted on glasses and fluorescence was analyzed in the microscope.

DKO mice = test: Fluorescence microscopy of cryosected retinas of DKO mice after subtenon injection; format: in vivo; settings: single subtenon injection 4000 mg/kg, after 48 hours; for retinal detachment in cryosected retinas: 4000 mg/kg
Experimental: FIG. 18. Micrographs showing the fluorescence of cryosected retinas of 8-months old WT and DKO mice. The micrographs obtained from (A) a normal mouse, (B) DKO animals not treated with methyl beta-CD, and (C) DKO animals treated with methyl beta-CD. The DKO animals have strong autofluorescence in the RPE layer compared with WT as well as retinal detachment (size shown by arrow). Single subtenon administration of methyl Beta CD (4000 mg/kg) reduced both RPE autofluorescence and retinal detachment.
The retinas of wild type and DKO animals were analyzed by fluorescence microscopy with the following procedure. Briefly wild type and DKO animals were mock-treated or treated with a single subtenon injection with either vehicle or with methyl beta-cyclodextrin (4000 mg/kg). After 48 hours the eyes were enucleated, fixed, and cryosected. For viewing, 10-micron thick sections were blocked and stained with the red-fluorescently labeled lectin PNA to identify cones in the photoreceptor outer segments (PROS), and blue DAPI nuclear stain to identify the nuclei. In the gray scale micrograph of FIG. 18 (Panel A), the red and blue stains are not distinguishable, so the red fluorescence is labeled PROS and the lighter autofluorescent RPE is also labeled.

[3] = cited from earlier work

Molecule: OC[C@H]1O[C@@H]2O[C@H]3[C@H](O)[C@@H](O)[C@@H](O[C@H]4[C@H](O)[C@@H](O)[C@@H](O[C@H]5[C@H](O)[C@@H](O)[C@@H](O[C@H]6[C@H](O)[C@@H](O)[C@@H](O[C@H]7[C@H](O)[C@@H](O)[C@@H](O[C@H]8[C@H](O)[C@@H](O)[C@@H](O[C@H]1[C@H](O)[C@H]2O)O[C@@H]8CO)O[C@@H]7CO)O[C@@H]6CO)O[C@@H]5CO)O[C@@H]4CO)O[C@@H]3CO [Compound 4, β-cyclodextrin]
- formation of inclusion complex with A2E [1]: A2E-β-CD inclusion complexes
- formation of inclusion complex with DHE [2]: formation of DHE-β-CD
- oxidation of A2E (UV-visible absorption spectra) (A2E oxidation assay): oxidation of A2E was not observed
- dissolution of A2E aggregates in aqueous phase (diffusion through 0.2 μm pores) (A2E aggregation assay): dissolved the A2E aggregates

Molecule: Methyl-β-cyclodextrin [Compound 5]
- fluorescence of eyecups (bisretinoids in RPE) (eyecups from DKO mice): lack of fluorescence
- RPE autofluorescence (bisretinoids) in cryosected retinas (DKO mice): reduced
- retinal detachment in cryosected retinas (DKO mice; listed as methyl Beta CD): reduced
- retinal detachment in cryosected retinas (DKO mice; listed as methyl beta-cyclodextrin): reduced detachment

Molecule: Triacetyl-β-cyclodextrin [Compound 12]
- solubility in water (in words) [3]: insoluble
